Laboratory results reported in publication PMC9966370, “Biological Evaluation and In Vitro Characterization of ADME Profile of In-House Pyrazolo[3,4-d]pyrimidines as Dual Tyrosine Kinase Inhibitors Active against Glioblastoma Multiforme” (Pharmaceutics, 2023).
Where two headings read alike, the source gives them in different places.

What was measured:
c-Src = target: T1, c-Src (Homo sapiens, UniProt P12931); test: cell-free enzymatic assay (ADP-Glo), c-Src; format: biochemical; details: 100 µM ATP, 500 µM Src-peptide; read-out: c-Src Ki
T1 construct: purchased Promega (Madison, WI, USA)
T1 sequence (P12931 whole entry): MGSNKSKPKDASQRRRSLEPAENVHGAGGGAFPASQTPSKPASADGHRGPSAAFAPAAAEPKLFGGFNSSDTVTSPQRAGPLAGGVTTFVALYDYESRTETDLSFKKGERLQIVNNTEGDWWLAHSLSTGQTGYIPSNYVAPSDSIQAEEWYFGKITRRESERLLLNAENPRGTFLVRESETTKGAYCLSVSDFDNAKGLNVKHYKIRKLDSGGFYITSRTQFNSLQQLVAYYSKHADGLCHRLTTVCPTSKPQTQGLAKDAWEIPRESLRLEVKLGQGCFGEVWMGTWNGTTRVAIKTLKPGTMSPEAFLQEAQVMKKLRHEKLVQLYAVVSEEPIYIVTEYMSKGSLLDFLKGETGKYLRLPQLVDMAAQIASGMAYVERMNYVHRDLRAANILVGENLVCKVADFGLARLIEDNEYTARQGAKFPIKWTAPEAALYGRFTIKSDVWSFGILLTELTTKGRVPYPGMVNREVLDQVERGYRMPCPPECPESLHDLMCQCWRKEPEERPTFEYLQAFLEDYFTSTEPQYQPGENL
Method: The reactions were carried out in accordance with the manufacturer’s instructions, with minor modifications. The experiments were run using all substrates at least twice the concentration of apparent Km. […] All reactions were run out at 30 °C for 10 min with 10–50 ng of enzyme and 10 µL of 10% DMSO. Protein low-binding tubes were used to prevent peptide adsorption onto the plastic surface. To detect kinase activity, the ADP-Glo Kinase Assay (Promega, Madison, WI, USA) was used according to the manufacturer’s protocol. Into white 384-well plates, reactions were stopped for 50 min at RT by adding 10 µL of ADP-Glo Reagent (Promega, Madison, WI, USA). After 30 min, 20 µL of Detection Reagent (Promega, Madison, WI, USA) was added, and the reaction was read using a GloMax Discover microplate reader (Promega, Madison, WI, USA). […] Compounds analyzed were considered to act as ATP-competitive inhibitors.

U-87 GBM cell line [1] = test: antiproliferative activity, MTT assay, U-87; format: cell-based; details: Homo sapiens, 72 h treatment
Method: (§1) Cell-based assays were performed using four GBM cell lines, i.e., U-87, LN18, LN229, and DBTRG, cultured in Dulbecco’s modified Eagle medium (DMEM) (U-87, LN18, and LN229) or Roswell Park Memorial Institute medium (RPMI 1640) (DBTRG). Both media were implemented with 10% fetal bovine serum (FBS), 2 mM L-glutamine, and 10,000 units/mL penicillin/streptomycin at 37 °C in a 5% CO2 atmosphere. […] The final concentration of DMSO used never exceeded 0.5% v/v, and appropriate controls were always performed in each assay. […] These were cultured in DMEM supplemented with 10% FBS, 2 mM L-glutamine, and 10,000 units/mL penicillin/streptomycin at 37 °C in a 5% CO2 atmosphere. The protocol used to assess the cytotoxic effect on both healthy cell lines was the same described above for the antiproliferative assay. For both the antiproliferative and the cytotoxic assays, 3-(4,5-dimethylthiazol-2-yl)-2,5-diphenyltetrazolium bromide (MTT) was used to assess cell viability as previously described. Briefly, 150 μL of MTT (5 mg/mL in FBS-free culture medium) was added to each well, and the plates incubated for 4 h in a 5% CO2 atmosphere at 37 °C. Afterward, formazan violet crystals were solubilized in 150 μL of isopropanol, and the absorbance was quantified at 570 nm using a Multiskan SkyHigh Microplate Spectrophotometer (ThermoFisher, Waltham, MA, USA). Cell viability was expressed as a percentage of DMSO-treated cells (controls), taken as 100%. […] To support MTT data, cytotoxicity assays was always paralleled by a careful observation of cells under a phase-contrast light microscope, as described in USP 28 (United States Pharmacopeia edition 2005) as an alternative method. This analysis was performed by an expert operator blind to the treatment, and exemplificative photos representing the effects of compound 5 on LN229 and DBTRG cells are reported in Figures S2 and S3 (Supplementary Materials).

DBTRG cells = test: cell-cycle analysis by flow cytometry, DBTRG; format: cell-based, human; details: 72 h at IC50 (8.5 µM)
LN229 cells [2] = test: reversible/irreversible effect on LN229 cell death (MTT); format: cell-based, human; details: for further decrease in cell viability: 24 h treatment followed by 48 h without compound, vs 24 h
fibroblasts FIBRO 2-93 = test: cytotoxicity on nontumoral healthy cells, MTT assay, FIBRO 2-93; format: cell-based, human
Method: (§4) The protocol used to assess the cytotoxic effect on both healthy cell lines was the same described above for the antiproliferative assay. For both the antiproliferative and the cytotoxic assays, 3-(4,5-dimethylthiazol-2-yl)-2,5-diphenyltetrazolium bromide (MTT) was used to assess cell viability as previously described [20]. […] Afterward, formazan violet crystals were solubilized in 150 μL of isopropanol, and the absorbance was quantified at 570 nm using a Multiskan SkyHigh Microplate Spectrophotometer (ThermoFisher, Waltham, MA, USA). Cell viability was expressed as a percentage of DMSO-treated cells (controls), taken as 100%.

[3] = as above; format: cell-based, human; details: human, FIBRO 2-93 healthy fibroblasts, 72 h treatment, MTT
Method: as §4

DBTRG GBM cell line = test: antiproliferative activity, MTT assay, DBTRG; format: cell-based; details: Homo sapiens, 72 h treatment
Method: as §1

PAMPA, GI permeability = format: in vitro ADME; details: RT; for GI membrane retention (MR%): 5 h, pH 7.4; for Papp at 5 h, 500 µM: pH 7.4, PAMPA
Method: (§2) UV/LC–MS chromatographic analyses were carried out using an Agilent 1100 LC/MSD VL system (G1946C) purchased from Agilent Technologies (Palo Alto, CA, USA). […] The analysis began with 5% B (t = 0–1 min), increased to 95% (t = 1–10 min), maintained at 95% (t = 10–19 min), and finally returned to 5% […]. The analyses were performed at a flow rate of 0.6 mL/min, UV detection was monitored at 254 nm, and spectra were acquired over the scan range of m/z 100–1000 in both positive and negative modes.
(§3) The DMSO stock of each compound was diluted with phosphate buffer (PBS 25 mM, pH 7.4) to a final concentration of 500 µM in order to obtain the “donor”. For GI and BBB permeability, filters were coated with 10 µL of 1% w/v dodecane phosphatidylcholine solution or 5 µL of 10% w/v CHCl3/dodecane brain polar lipid solution. The donor (150 µL) was poured over the artificial membranes on the filter plate. DMSO/PBS (300 µL, 1:1 v/v) was then added to the acceptor wells. After assembling the sandwich plates, the experiments were run for 5 h at room temperature (RT). Lastly, the amount of compound passed though the artificial membranes was determined using the UV/LC–MS method described above. Apparent permeability (Papp) and membrane retention (MR%) were determined as previously described.

LN229 GBM cell line = test: antiproliferative activity, MTT assay, LN229; format: cell-based; details: Homo sapiens, LN-229, 72 h treatment
Method: as §1

[4] = metabolic stability assay in human liver microsomes; format: in vitro ADME; details: HLM 0.2 mg/mL, NADPH, 1 h, 37 °C
Method: as §2
Each DMSO compound solution was incubated for 1 h at 37 °C in the presence of 500 µL of PBS (25 mM, pH 7.4), human liver microsomal (HLM) proteins (0.2 mg/mL), and 10 mM NADPH solution in MgCl2 (48 mM). The reactions were stopped with 1.0 mL of cold ACN. The samples were centrifuged (4000 rpm for 10 min), and the supernatants were collected, dried under N2 flow, and suspended in 100 µL of methanol (MeOH). Parent drugs and metabolites were determined using the previously described HPLC/UV–MS method. The percentage metabolic stability was calculated by comparing the metabolized and unmetabolized compounds.

keratinocytes HaCaT = test: cytotoxicity on nontumoral healthy cells, MTT assay, HaCaT; format: cell-based, human; details: 72 h treatment
Method: as §4

[5] = as above; format: cell-based, human; details: human, HaCaT keratinocytes, 72 h treatment
Method: as §4

LN229 cells [6] = test: T-scratch assay (cell migration); format: cell-based, human; details: for wound closure: after 72 h; for wound left opened: all timepoints (24–48–72 h)
Method: The scratched area was observed and photographed at 10× magnification after 0–24–48–72 h (see Figure S5, Supplementary Materials).

PAMPA, BBB permeability = format: in vitro ADME; details: RT; for BBB membrane retention (MR%): 5 h, pH 7.4; for Papp at 5 h, 500 µM: pH 7.4, PAMPA
Method: as §2, §3

LN18 GBM cell line = test: antiproliferative activity, MTT assay, LN18; format: cell-based; details: Homo sapiens, LN-18, 72 h treatment
Method: as §1

LN229 cells [7] = test: cell-cycle analysis by flow cytometry, LN229; format: cell-based, human; details: LN229, 72 h at IC50 (6.9 µM)
U-87 GBM cell line [8] = details: previously published; cited from earlier work
[9] = HLM, previously published, cited from earlier work

Fc1ccc(C(Cl)Cn2ncc3c(NCc4ccccc4)ncnc32)cc1 (centres unmarked) [Compound 5]
Ki (c-Src): 3.14 ± 0.38 µM | melting point: 143 to 144 °C | IC50 (U-87 GBM cell line [1]): 6.8 ± 0.3 µM | change in cells in G2/M phase vs control (DBTRG cells): +38.1% | change in cells in sub G0/G1 area vs control (DBTRG cells): +15.6% | further decrease in cell viability (LN229 cells [2]; 10 µM): ~ −30% | further decrease in cell viability (LN229 cells [2]; 100 µM): ~ −30% | reversibility of cytotoxic effect (LN229 cells [2]; 24 h treatment, 48 h drug-free medium): irreversible cytotoxic effect | CC50 (fibroblasts FIBRO 2-93; 72 h treatment, MTT): 91.7 ± 5.3 µM | CC50 times higher than IC50 (fibroblasts FIBRO 2-93; CC50 on FIBRO 2-93 and HaCaT vs IC50 on GBM cells): 10 times | CC50 at 72 h [3]: > 90 µM | IC50 (DBTRG GBM cell line): 8.5 ± 1.4 µM | GI membrane retention (MR%) (PAMPA, GI permeability): 9.2% | Papp at 5 h, 500 µM (PAMPA, GI permeability): ≥ 10 ×10⁻⁶ cm/s | IC50 (LN229 GBM cell line): 6.9 ± 0.5 µM | Metabolic Stability [4]: 84.2% | CC50 (keratinocytes HaCaT): 126 ± 6.4 µM | CC50 at 72 h [5]: > 90 µM | wound closure (LN229 cells [6]; 0.25 µM): ~60% | wound closure (LN229 cells [6]; 0.5 µM): ~60% | wound left opened (LN229 cells [6]; 2.5 µM): more than 80% | wound left opened (LN229 cells [6]; 5 µM): more than 80% | BBB membrane retention (MR%) (PAMPA, BBB permeability): 5.6% | Papp at 5 h, 500 µM (PAMPA, BBB permeability): ≥ 10 ×10⁻⁶ cm/s | IC50 (LN18 GBM cell line): 10.8 ± 1.4 µM | change in cells in G0/G1 phase vs control (LN229 cells [7]): −32.4% | change in cells in sub G0/G1 phase vs control (LN229 cells [7]): +32.1% | percentage of cells in the S and G2/M phases vs control (LN229 cells [7]): No significant differences

ClC(Cn1ncc2c(Nc3ccccc3)ncnc21)c1ccc(Br)cc1 (centres unmarked) [Compound 12]
IC50 (DBTRG GBM cell line): > 100 µM | IC50 (LN229 GBM cell line): > 100 µM | IC50 (U-87 GBM cell line [8]): 14 ± 1.9 µM | Metabolic Stability [9]: ≥ 90% | IC50 (LN18 GBM cell line): > 100 µM

CSc1nc(NCCc2ccccc2)c2cnn(CC(Cl)c3ccccc3)c2n1 (centres unmarked) [Compound 8]
IC50 (U-87 GBM cell line [1]): 37.9 ± 3.9 µM | IC50 (DBTRG GBM cell line): 31.2 ± 2.5 µM | GI membrane retention (MR%) (PAMPA, GI permeability): 42.7% | Papp at 5 h, 500 µM (PAMPA, GI permeability): 3.2 ×10⁻⁶ cm/s | IC50 (LN229 GBM cell line): 26.1 ± 2.8 µM | BBB membrane retention (MR%) (PAMPA, BBB permeability): 18.3% | Papp at 5 h, 500 µM (PAMPA, BBB permeability): 5.96 ×10⁻⁶ cm/s | IC50 (LN18 GBM cell line): 5.9 ± 1.1 µM

Fc1ccc(CNc2ncnc3c2cnn3CC(Cl)c2ccc(Cl)cc2)cc1 (centres unmarked) [Compound 7]
Ki (c-Src): 0.8 ± 0.09 µM | IC50 (U-87 GBM cell line [1]): 22.7 ± 2.3 µM | CC50 at 72 h [3]: 28.6 ± 3.7 µM | IC50 (DBTRG GBM cell line): 14.6 ± 0.9 µM | IC50 (LN229 GBM cell line): 7.1 ± 1.1 µM | CC50 at 72 h [5]: 37.8 ± 4.9 µM | Metabolite Formation M1 ([9]; M1 = M − HCl + O): 4% | Metabolite Formation M3 ([9]; M3 = M—group bearing NH moiety in R2): 2% | BBB membrane retention (MR%) (PAMPA, BBB permeability): 4.4% | Papp at 5 h, 500 µM (PAMPA, BBB permeability): ≥ 10 ×10⁻⁶ cm/s | IC50 (LN18 GBM cell line): 3.9 ± 0.6 µM

Fc1ccccc1CNc1ncnc2c1cnn2CC(Cl)c1ccccc1 (centres unmarked) [Compound 3]
IC50 (U-87 GBM cell line [1]): 40.2 ± 3.6 µM | IC50 (DBTRG GBM cell line): 15.1 ± 2.1 µM | GI membrane retention (MR%) (PAMPA, GI permeability): 7.3% | Papp at 5 h, 500 µM (PAMPA, GI permeability): ≥ 10 ×10⁻⁶ cm/s | IC50 (LN229 GBM cell line): 29.2 ± 2.6 µM | Metabolic Stability [4]: 80.4% | BBB membrane retention (MR%) (PAMPA, BBB permeability): 4.8% | Papp at 5 h, 500 µM (PAMPA, BBB permeability): ≥ 10 ×10⁻⁶ cm/s | IC50 (LN18 GBM cell line): 27.5 ± 2.1 µM

Fc1ccc(C(Cl)Cn2ncc3c(NCc4ccccc4F)ncnc32)cc1 (centres unmarked) [Compound 6]
Ki (c-Src): 0.07 ± 0.01 µM | IC50 (U-87 GBM cell line [1]): 32.4 ± 2.7 µM | IC50 (DBTRG GBM cell line): 20.1 ± 1.8 µM | GI membrane retention (MR%) (PAMPA, GI permeability): 10.1% | Papp at 5 h, 500 µM (PAMPA, GI permeability): ≥ 10 ×10⁻⁶ cm/s | IC50 (LN229 GBM cell line): 33.8 ± 2.3 µM | Metabolic Stability [4]: 69.9% | BBB membrane retention (MR%) (PAMPA, BBB permeability): 4.4% | Papp at 5 h, 500 µM (PAMPA, BBB permeability): ≥ 10 ×10⁻⁶ cm/s | IC50 (LN18 GBM cell line): 11.7 ± 1.5 µM
